Where “and” joins values, the source holds several entries; their conditions need not be identical. Identical values can stand only once. Entries after “also recorded” stand apart in the source; their conditions may differ.
Key:
[1] = system: C57BL/KsJ-db/db mice; experiment: Anti-hyperglycemic activity (blood glucose); type: in vivo, mouse (C57BL/KsJ-db/db); settings: for blood glucose lowering compared with DHEA (in words): compound 16 0.2% vs DHEA 0.4% of diet
Procedure: C57BL/KsJ-db/db 8 week old female mice were obtained and housed in polycarbonate cages in animal quarters maintained at 24° C. with 12 h of light and 12 h of darkness each day.
Mice were placed on a control chow or a chow diet containing either 0.4% DHEA or 0.2% of compound 16.
For determination of blood glucose levels, mice were bled from the orbital sinus using a heparinized capillary tube. 0.2 ml of blood was added to 1.8 ml of water to hemolyze the blood and glucose concentration was determined using the glucose oxidase assay.

[2] = system: rat uterus; experiment: Uterotrophic test for estrogenic activity, oral; type: in vivo; settings: for Mean Uterine Weight: 3 days, n = 6; for estrogenic activity (in words): rat uterotrophic test
Source text: Uterotrophic Test for Estrogenic Activity. Compound 16 vs. DHEA and Estradiol-benzoate. Compounds Given by Oral Administration.
(§1) Twenty-two day old rats were obtained from Charles River Laboratories. Animals were used at 29 days of age. Test steroids were suspended by homogenization in sesame oil. Rats were orally intubated at 1-2 P.M. for 3 days with a test steroid in sesame oil or with sesame oil alone (control). On the 4th day the animals were killed and the uteri were removed and weighed.

[3] = system: rat uterus; experiment: Estrogenic and anti-estrogenic activity (uterine weight, s.c., CD rats); type: in vivo, rat (female CD); settings: for Mean Uterine Weight ± S.D.: 3 days, DHEA vs 16 experiment; for estrogenic / anti-estrogenic effect, uterine weight (in words): s.c., 60 mg/kg or higher, female CD rats
Procedure: Female CD rats, 26-27 days old, were used. Rats were injected subcutaneously for 3 days with either DHEA or 16 in propylene glycol. Control rats received propylene glycol alone. The rats were killed on the 4th day and the uteri were removed and weighed.
Female CD rats, 26-27 days old, were injected subcutaneously for 3 days with one of the compounds of the present invention at 60 mg/kg in propylene glycol. Controls received propylene glycol alone. On the 4th day the rats were killed and the uteri were dissected out and weighed.

[4] = system: DMBA produced papillomas and carcinomas; settings: topical; cited from earlier work
[5] = system: TPA stimulation of 3H-thymidine incorporation in epidermis; experiment: Inhibition of TPA stimulation of 3H-thymidine incorporation in epidermis, topical steroid; type: in vivo, mouse (A/J)
Procedure: Tumor promoters, such as TPA, stimulate hyperplasia and DNA synthesis when applied to the skin, and it is believed that this stimulation is an important step in the enhancement of tumorigenesis.
Incorporation of ^3 H-thymidine into A/J mouse epidermal DNA was determined as described in Pashko, L. L., Schwartz, A. G., Abou-Gharbia, M. and Swern, D. (1981), Inhibition of DNA synthesis in mouse epidermis and breast epithelium by dehydroepiandrosterone and related steroids, Carcinogenesis, 2, 717-721. Values are mean±SD for 3 separately treated mice in each group 20 hours after TPA application. DHEA or testosterone was added topically in 0.2 ml acetone one hour before TPA addition.

[6] = system: rat uterus; experiment: Uterotrophic test, subcutaneous (Compound 2 vs. DHEA); type: in vivo; settings: n = 4 or 5
Procedure: as §1
Compound 2 vs. DHEA. Compounds Administered by Subcutaneous Injection
Steroids were dissolved in 2 ml ethanol and brought up to 5 ml volume with propylene glycol. Concentrations were such that 1 μl/gm body weight delivered the indicated dose.

[7] = system: C57BL/KsJ-db/db mice; settings: 0.4% of the diet; cited from earlier work
[8] = system: mammalian glucose-6-phosphate dehydrogenase (G6PDH); settings: cited from earlier work
[9] = system: many different cell lines in culture; settings: 10^-5 M to 10^-4 M; cited from earlier work
[10] = system: HeLa cell strain, TCRC-2; settings: HeLa TCRC-2; cited from earlier work
[11] = system: breast, lung, and colon tumors; settings: approximately 400 mg/kg daily, long-term; cited from earlier work
[12] = system: VY-A^vy /a mice; settings: long-term administration; cited from earlier work
[13] = system: 3H-thymidine incorporation in mouse epidermis; settings: in vivo; cited from earlier work
[14] = system: cultured rat kidney epithelial cell line; settings: cited from earlier work
[15] = system: cholesterol; settings: mouse, in vivo; cited from earlier work
[16] = system: New Zealand Black (NZB) mice; settings: long-term treatment; cited from earlier work
[17] = system: rat uterus; settings: 60 mg/kg s.c. for 3 days, sexually immature rats; cited from earlier work
[18] = system: rat uterus; mouse seminal vesicle plus prostate; settings: prolonged administration; cited from earlier work

Compound: C[C@H]1CC[C@@]2(C)C(=CC[C@@H]3[C@@H]2CC[C@]2(C)C(=O)CC[C@@H]32)C1 [Compound 16, 3β-methyl-5-androsten-17-one]
- Blood Glucose Levels ([1]; 0.2% of diet, week 0, listed as Cpd 16): 216 ± 61 mg/deciliter
- Blood Glucose Levels ([1]; 0.2% of diet, week 0, listed as Cpd. 16): 244 ± 32 mg/deciliter
- Blood Glucose Levels ([1]; 0.2% of diet, week 1, listed as Cpd 16): 135 ± 15 mg/deciliter
- Blood Glucose Levels ([1]; 0.2% of diet, week 1, listed as Cpd. 16): 143 ± 21 mg/deciliter
- Blood Glucose Levels ([1]; 0.2% of diet, week 2, listed as Cpd 16): 118 ± 12 mg/deciliter
- Blood Glucose Levels ([1]; 0.2% of diet, week 2, listed as Cpd. 16): 134 ± 13 mg/deciliter
- Blood Glucose Levels ([1]; 0.2% of diet, week 3): 102 ± 8 mg/deciliter
- Blood Glucose Levels ([1]; 0.2% of diet, week 4): 105 ± 5 mg/deciliter
- Blood Glucose Levels ([1]; after 0.2% of diet, 24 hrs. on control diet): 147 ± 10 mg/deciliter
- Blood Glucose Levels ([1]; after 0.2% of diet, 48 hrs. on control diet): 262 ± 23 mg/deciliter
- blood glucose lowering compared with DHEA (in words) [1]: more effective in lowering blood glucose concentration
- blood glucose lowering compared with DHEA (in words) ([1]; listed as compound 16): significantly more slowly in the mice that had received compound 16
- Mean Uterine Weight ([2]; 200 mg/kg oral): 189 ± 14 Mgs
- Mean Uterine Weight ([2]; 400 mg/kg oral): 174 ± 20 Mgs
- estrogenic activity (in words) [2]: Neither compounds 16 nor 2 are estrogenic; also recorded: devoid of estrogenic activity in the rat uterotrophic test
- estrogenic activity (in words) ([2]; listed as compound 16): without any apparent estrogenic effect
- Mean Uterine Weight ± S.D. ([3]; 60 mg/kg s.c.): 126 ± 87 mg/100 gm body weight
- Mean Uterine Weight ± S.D. ([3]; 120 mg/kg s.c.): 111 ± 27 mg/100 gm body weight
- estrogenic / anti-estrogenic effect, uterine weight (in words) ([3]; 60 mg/kg): reduction in uterine weight; also recorded: apparently acts as an anti-estrogen
- estrogenic / anti-estrogenic effect, uterine weight (in words) ([3]; listed as cmpd. 16, 60 mg/kg): significantly greater than that of the cmpd. 21 treated rats; also recorded: highly significant anti-estrogenic activity
- inhibition of DMBA produced papillomas and carcinomas (in words) [4]: inhibits DMBA produced papillomas and carcinomas

Compound: C[C@]12CC[C@H](O)CC1=CC[C@@H]1[C@@H]2CC[C@]2(C)C(=O)CC[C@@H]12 [DHEA, 3β-Hydroxy-5-androst-en-17-one, reference compound]
- TPA stimulation of epidermal DNA synthesis (in words) [5]: abolishes this stimulation
- Blood Glucose Levels ([1]; 0.4% of diet, week 0): 214 ± 59 mg/deciliter and 232 ± 28 mg/deciliter
- Blood Glucose Levels ([1]; 0.4% of diet, week 1): 161 ± 19 mg/deciliter and 132 ± 14 mg/deciliter
- Blood Glucose Levels ([1]; 0.4% of diet, week 2): 145 ± 19 mg/deciliter and 135 ± 37 mg/deciliter
- Blood Glucose Levels ([1]; 0.4% of diet, week 3): 117 ± 12 mg/deciliter
- Blood Glucose Levels ([1]; 0.4% of diet, week 4): 112 ± 4 mg/deciliter
- Anti-diabetic Activity relative to DHEA ([1]; Table 15, DHEA = 1×): 1 ×
- Blood Glucose Levels ([1]; after 0.4% of diet, 24 hrs. on control diet): 192 ± 32 mg/deciliter
- Blood Glucose Levels ([1]; after 0.4% of diet, 48 hrs. on control diet): 310 ± 37 mg/deciliter
- Mean Uterine Weight ([2]; 400 mg/kg oral): 261 ± 23 Mgs
- estrogenic activity (in words) [2]: significantly estrogenic
- Mean Uterine Weight ([6]; 10 mg/kg s.c.): 152 ± 17 Mgs
- Mean Uterine Weight ([6]; 60 mg/kg s.c.): 290 ± 72 Mgs
- Mean Uterine Weight ± S.D. ([3]; 60 mg/kg s.c.): 222 ± 77 mg/100 gm body weight
- hypoglycemic effect (in words) [7]: marked hypoglycemic effect
- lifespan (in words) [7]: significantly prolonged their lifespan
- inhibition of mammalian G6PDH (in words) [8]: potent non-competitive inhibitor of mammalian glucose-6-phosphate dehydrogenase
- inhibition of DMBA produced papillomas and carcinomas (in words) [4]: inhibits DMBA produced papillomas and carcinomas
- growth of cell lines in culture (in words) [9]: slows the growth of many different cell lines in culture
- sensitivity to growth inhibition (in words) [10]: particularly sensitive to DHEA-induced growth inhibition
- tumor development (in words) [11]: inhibit the development of breast, lung, and colon tumors
- development of obesity (in words) [12]: prevented the development of obesity without suppressing appetite
- 3H-thymidine incorporation in mouse epidermis (in words) [13]: antagonizes the capacity of the tumor promoter
- TPA stimulation of 3H-thymidine incorporation (in words) [14]: antagonizes the capacity of the tumor promoter
- anti-hypercholesterolemic effect (in words) [15]: anti-hypercholesterolemic effect
- rate of development of the autoimmune anemia (in words) [16]: significantly inhibits the rate of development of the autoimmune anemia
- uterine enlargement (in words) [17]: produces uterine enlargement
- estrogenic effect (in words) [18]: evidence of an estrogenic effect after prolonged administration

— US5804576A, “Derivatives of 5-androsten-17-ones and 5-androstan-17-ones” (Research Corporation Technologies, Inc., priority 1986, dated 1998)
